# Reference: publication PMC13128454, “Mutant p53 protein accumulation is selectively targetable by proximity-inducing drugs” (Nature Chemical Biology, 2025)
# Several values for one entry are separate records, joined by “and”; a condition that tells them apart may be missing. Identical values can stand only once. Like-named read-outs stand apart in the source and are kept apart here.
# Key:
# Type in all cases: cell-based
# BxPC-3 cells = experiment: CellTiter-Glo cell viability; conditions: BXPC3; for mean_norm (normalized viability): 4 day
# Summary of the method: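 First, typically 1,500 cells are plated per well alongside graded compound doses. Next, CTG reagent goes in and is mixed. Finally, the plate is read.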
# [1] = test system: Halo–p53-R273H (FL)–mCherry 293T cells versus parental 293T cells; experiment: flow-cytometry growth competition; conditions: for normalized_mCherry_percentage: R273H, day 8, normalized to DMSO
# Summary of the method: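 Marker-positive and marker-negative cells mixed, plated at low density and treated with varying compound concentrations, passaged and retreated as needed. Fluorophore-positive versus negative fractions quantified by flow cytometry, gated on untreated mixtures.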
# [2] = target: T1, p53-Y220C–PLK1 ternary complex (Homo sapiens, UniProt P04637+P53350, M133L/N239Y/N268D/V203A/Y220C); experiment: NanoBiT ternary complex assay in cotransfected 293T cells; conditions: for NLuc Signal, Average: 0 nM: 323
# T1 construct: NLS–LgBiT–p53-Y220C (DBD) and mEGFP–PLK1–SmBiT; expressed in transfected cells; host or cells: 293T cells, transient cotransfection
# Source text: After 1 day, the cells were passaged into 384-well plates and treated with varying concentrations of compound.
# [3] = CellTiter-Glo cell viability; conditions: human, MFE319 cells, No PMV6, read-out: viability, replicates (sheet 4G)
# Protocol: Cells were plated in 384-well plates (typically 1,500 cells per well) with varying concentrations of compounds, with a total volume of 50 μl per well. CTG reagent was added (25 μl) to the solutions, mixed and read out using an EnVision 2105 multimode plate reader.
# [4] = Concentration 2.44141 nM, 1 day
# [5] = Concentration 4.88281 nM, 1 day
# [6] = Concentration 9.76562 nM, 1 day
# [7] = Concentration 19.5312 nM, 1 day
# [8] = Concentration 39.0625 nM, 1 day
compound,measurement,setting,value
"CC[C@@H]1C(=O)N(C)c2cnc(Nc3ccc(C(=O)NCCOCCOCCOCCOCCC(=O)N4CCC(Nc5cccc6c5cc(C#CCNc5ccc(S(C)(=O)=O)cc5OC)n6CC(F)(F)F)CC4)cc3OC)nc2N1C1CCCC1 [p53-01, PMV6-PEG4-BI2536]",p5301_AUC_to_10uM,BxPC-3 cells,0.6983
same,mean_norm (normalized viability),BxPC-3 cells; Concentration 625,0.9363
same,mean_norm (normalized viability),BxPC-3 cells; Concentration 1250,0.9354
same,mean_norm (normalized viability),BxPC-3 cells; Concentration 2500,0.8133
same,mean_norm (normalized viability),BxPC-3 cells; Concentration 5000,0.7027
same,IC50,"BxPC-3 cells; Homo sapiens, BXPC-3, 96 h, 4 day treatment",8.25 µM
same,normalized_mCherry_percentage,[1]; 1 nM,95.51%
same,normalized_mCherry_percentage,[1]; 10 nM,97.26%
same,normalized_mCherry_percentage,[1]; 100 nM,96.23%
same,normalized_mCherry_percentage,[1]; 1 uM,90.97%
same,activity in competition,[1]; day 8,did not observe any activity
same,EC50,"[2]; 24 h, n = 4, read-out: NanoBiT EC50",2.12 µM
same,EC50,"[2]; 1 day, n = 6, Fig. 3b, read-out: EC50 NanoBiT ternary complex formation",1.4 µM
same,NLuc Signal (replicate),"[2]; Concentration 1.2207 nM, 1 day",300 and 316 and 296 and 324 and 308
same,"NLuc Signal, Average","[2]; Concentration 1.2207 nM, 1 day",310
same,NLuc Signal (replicate),[2]; [4],356 and 348 and 308 and 360 and 340 and 324
same,"NLuc Signal, Average",[2]; [4],339.333
same,NLuc Signal (replicate),[2]; [5],316 and 344 and 284 and 312 and 332
same,"NLuc Signal, Average",[2]; [5],317.333
same,NLuc Signal (replicate),[2]; [6],328 and 336 and 296 and 308 and 312 and 360
same,"NLuc Signal, Average",[2]; [6],323.333
same,NLuc Signal (replicate),[2]; [7],352 and 360 and 304 and 296 and 324 and 300
same,"NLuc Signal, Average",[2]; [7],322.667
same,NLuc Signal (replicate),[2]; [8],404 and 356 and 324 and 368 and 332 and 364
same,"NLuc Signal, Average",[2]; [8],358
same,NLuc Signal (replicate),"[2]; Concentration 78.125 nM, 1 day",312 and 292 and 400 and 392 and 356
same,"NLuc Signal, Average","[2]; Concentration 78.125 nM, 1 day",351.333
same,NLuc Signal (replicate),"[2]; Concentration 156.25 nM, 1 day",380 and 352 and 372 and 324 and 360 and 332
same,"NLuc Signal, Average","[2]; Concentration 156.25 nM, 1 day",353.333
same,NLuc Signal (replicate),"[2]; Concentration 312.5 nM, 1 day",428 and 364 and 392 and 404 and 488
same,"NLuc Signal, Average","[2]; Concentration 312.5 nM, 1 day",413.333
same,NLuc Signal (replicate),"[2]; Concentration 625 nM, 1 day",484 and 444 and 472 and 448 and 420 and 408
same,"NLuc Signal, Average","[2]; Concentration 625 nM, 1 day",446
same,NLuc Signal (replicate),"[2]; Concentration 1250 nM, 1 day",704 and 792 and 644 and 588
same,"NLuc Signal, Average","[2]; Concentration 1250 nM, 1 day",660
same,NLuc Signal (replicate),"[2]; Concentration 2500 nM, 1 day",988 and 1108 and 1092 and 1436 and 1288
same,"NLuc Signal, Average","[2]; Concentration 2500 nM, 1 day",1167.33
same,NLuc Signal (replicate),"[2]; Concentration 5000 nM, 1 day",1240 and 1080 and 1140 and 1304 and 1104 and 1468
same,"NLuc Signal, Average","[2]; Concentration 5000 nM, 1 day",1222.67
same,NLuc Signal (replicate),"[2]; Concentration 10000 nM, 1 day",1052 and 1356 and 1056 and 1192 and 1180 and 1372
same,"NLuc Signal, Average","[2]; Concentration 10000 nM, 1 day",1201.33
same,NanoBiT mean_norm,[2]; Concentration 19.5312,1.047
same,NanoBiT mean_norm,[2]; Concentration 39.0625,1.0545
same,NanoBiT mean_norm,[2]; Concentration 78.125,1.0649
same,NanoBiT mean_norm,[2]; Concentration 156.25,1.0584
same,NanoBiT mean_norm,[2]; Concentration 312.5,1.026
same,NanoBiT mean_norm,[2]; Concentration 625,1.182
same,NanoBiT mean_norm,[2]; Concentration 1250,1.238
same,NanoBiT mean_norm,[2]; Concentration 2500,1.362
same,NanoBiT mean_norm,[2]; Concentration 5000,1.592
same,NanoBiT mean_norm,[2]; Concentration 10000,1.5997
same,ternary complex formation between p53-Y220C and PLK1,"[2]; NanoBiT, 1 day",induce ternary complex formation
same,Max_effect,[2]; sheet 5C,1.5997
same,EC50,"[2]; sheet 5C, read-out: EC50",2.12 µM
same,viability at 0.0390625 µM,[3]; p53-01 Concentration (µM) 0.0390625,94%
same,viability at 0.078125 µM,[3]; p53-01 Concentration (µM) 0.078125,99.7%
same,viability at 0.625 µM,[3]; p53-01 Concentration (µM) 0.625,85.4%
same,viability at 1.25 µM,[3]; p53-01 Concentration (µM) 1.25,61.2%
same,viability at 2.5 µM,[3]; p53-01 Concentration (µM) 2.5,41.5%
same,viability at 5 µM,[3]; p53-01 Concentration (µM) 5,30%
same,viability at 10 µM,[3]; p53-01 Concentration (µM) 10,22.2%
